The text below walks through data of patent US6455540B1, “Methods of use of quinolone compounds against anaerobic pathogenic bacteria” (priority 1999, dated 2002).

Structures are written as SMILES. ≈ marks a conversion by molar mass, not a printed value. Where two headings read alike, the source gives them in different places.

The test system of test [1] is peptostreptococci. Put plainly: Agar dilution MIC, peptostreptococci as a group. The format is cell-based, P. asaccharolyticus, P. magnus, P. micros, P. prevotii. The following applies: 45 strains of peptostreptococci from 4 species; read-out: concentration to which all strains were susceptible (MIC). A general note: In agar dilution, organisms are placed on agar that contains the substance at set levels.

Test [2] concerns Porphyromonas spp. [P. asaccharolytica, P. canoris, P. gingivalis, P. macaccae]. Put plainly: Agar dilution MIC, Porphyromonas spp. as a group. The format is cell-based. The following applies: read-out: concentration to which all strains were susceptible (MIC).
The subject of test [3] is F. necrophorum. Kind of test: Agar dilution MIC. The format is cell-based. As to conditions: Fusobacterium necrophorum; read-out: concentration to which strains were susceptible (MIC).
Test [4] concerns F. ulcerans. Put plainly: Agar dilution MIC. The format is cell-based. The following applies: Fusobacterium ulcerans.
Test [5] deals with peptostreptococci. The following applies: cited from earlier work.
Test [6] deals with clostridial isolates. As to conditions: cited from earlier work.
The subject of test [7] is Bacteroides fragilis. The following applies: Goldstein, et al.; cited from earlier work.
In test [8] the test system is B. thetaiotaomicron. As to conditions: Goldstein, et al.; cited from earlier work.
Test [9] concerns B. distasonis. The following applies: Goldstein, et al.; cited from earlier work.
For test [10], the system named is certain Prevotella strains. The following applies: Goldstein, et al.; cited from earlier work.
The subject of test [11] is certain Porphyromonas strains. As to conditions: Goldstein, et al.; cited from earlier work.
[12] abbreviates: Marco, et al., 18 strains of peptostreptococci.

Turning to `CO/N=C1\CN(c2nc3c(cc2F)c(=O)c(C(=O)O)cn3C2CC2)CC1CN` (racemic) [Gemifloxacin, (R,S)-7-(3-aminomethyl-4-methoxyiminopyrrolidin-1-yl)-1-cyclopropyl-6-fluoro-4-oxo-1,4-dihydro-1,8-naphthyridine-3-carboxylic acid], the MIC is not above 0.25 µg/mL in [1], not above 0.25 µg/mL in [2] and not above 2 µg/mL in [3]. Moreover, the MIC90 (usually the lowest concentration that inhibits either 90% of growth or 90% of the strains tested, depending on the study) was not below 4 µg/mL in [4]; 2 µg/mL (≈ 5.14 µM) in test [5] (Cormicon and Jones, 10 strains of peptostreptococci); 2 µg/mL (≈ 5.14 µM) in test [5] (setting [12]). For the same compound, in test [5] (setting [12]), the MIC range is 0.25 to 8 µg/mL. The “maximum MIC” value in [6] (Cormicon and Jones, ten clostridial isolates) was 2 µg/mL. For the same compound, in test [6] (Marco, et al., 19 unspecieted clostridial isolates), the “concentration to which all isolates were susceptible (MIC)” value is not above 2 µg/mL. Besides, the “activity” value in test [7] is reported as “showed activity”; in test [8], “only limited activity”; in test [9] it was “only limited activity”; in test [10] it was “showed activity”; in test [11], “showed activity”.
